Assay: Inhibition Assay: The specific assay conditions were as follows. Buffer: pH=7.5, 100 mM Tris-HCl, 75 mM NaCl, 2.5 mM CaCl2, 10 mM cysteine, 1% DMSO after all additions. Protein: 0.1 nM Kgp, isolated from culture of Porphyromonas gingivalis, as described in Pike et al. J. Biol. Chem. 1994, 269(1), 406, and Potempa and Nguyen. Current Protocols in Protein Scienc. 2007, 21.20.1-21.20.27. Fluorogenic substrate: 10 uM Z-His-Glu-Lys-MCA. Time=90 minutes. Temperature=37° C. Each compound: 10 concentrations, starting at either 100 uM or 100 nM, with lower concentrations generated by serial 3-fold dilutions. By testing a range of concentrations for each compound, the concentration required to inhibit the activity of lysine gingipain by 50% (the “IC50”) was determined. Under the described assay conditions, signal-to-noise was excellent, and Z factor was greater than 0.6.

Structure (SMILES): NCCCC[C@H](NC(=O)C1CCCC1)C(=O)COc1c(F)c(F)cc(F)c1F
- IC50: < 1 nM

Reference: ChEMBL document CHEMBL5727087, “Inhibitors of lysine gingipain” (2018)
